The values below come from US6906170B1 (Yeda Research and Development Co. Ltd., priority 1998, dated 2005).

In experiment [1] the test system is human T cells. The experiment in a line: PHA- or IL-2-mediated T cell proliferation. The format is cell-based. The settings on record: peptide 1 to 100 pg/ml. As to the method: The in vitro bioassays (a) to (e) are well-known in the art. Thus, for example, assays (a), (b) and (e) may be carried out as described in the section Materials and Methods hereinafter. […] The IL-2-derived peptides or their derivatives are added to the culture wells (different amounts, 10 microliters) for the entire period of the assay. [^3H]-Thymidine is added to the microtiter 96 U-form well plates 18 h before harvesting the cultures on day 3 onto glass fiber filters and counted by liquid scintillation counter. Mean CPM and SD from quadriplicate culture are then presented.

Experiment [2] has as its system human T cells. Description: T cell adhesion to FN induced by various activators. Conditions: for inhibition of T cell adhesion to FN induced by various stimulators: peptide 10 pg/ml, IL-2, IL-7, MIP-1β, PMA, 8A2 mAb, anti-CD3 mAb. The class given is cell-based. As to the method:
FIGS. 7A-7B show inhibition by pep2 (FIG. 7A) and pep1 (FIG. 7B) of T cell adhesion to FN, induced by various activators. […] (1 μg/ml), or anti-human CD3 mAb (1 μg/ml). The IL-2-derived peptides, pep1 or pep2, were also present in some wells. After 30 min at 37° C., non-adherent T cells were removed by washing, the remaining adherent cells were lysed, and the percentage of T cells that had adhered was determined. One experiment representative of four.
T cell adhesion assays. Human T cells were purified from the peripheral blood of healthy donors, and T cell adhesion to immobilized protein substrates was examined as follows: Human leukocytes were isolated on a Ficoll gradient, washed, and incubated (2 h, 37° C., 7.5% CO2, humidified atmosphere) on petri dishes. The non-adherent cells were then collected and incubated (1 h, 37° C., 7.5% CO2, humidified atmosphere) on nylon wool columns (Novamed Ltd., Jerusalem, Israel). Unbound cells were eluted from the columns by extensive washings. The resulting cell population was always >92% T cells. […] After 4-6 h at 37° C., the wells were washed and ^51[Cr]-labeled T cells were added to the wells, 10^5 cells/100 μl of adhesion medium (RPMI-1640 supplemented with 0.1% BSA, 1% sodium pyruvate, 1% HEPES buffer). The microtiter plates containing the cells were incubated (30 min, 37° C.) in a humidified, 7.5% CO2 atmosphere, and then washed. The adherent cells were lysed, and the resulting supernatants were removed and analyzed in a γ-counter. For each experimental group, the results were expressed as the mean percentage ±SD of bound T cells from quadruplicate wells.
Inhibition by the Ile-Val-Leu and […](SEQ ID NO:1) peptides of T cell adhesion to FN induced by various pro-inflammatory mediators and by mAb specific for molecules expressed on T cells.

For experiment [3], the system named is human T cells. Description: T cell chemotaxis through FN-coated polycarbonate membranes. The class given is cell-based. The settings on record: peptide 1 pg/ml, FN-coated membrane; for inhibition of T cell migration toward IL-2: IL-2 10 U/ml in lower compartment, p<0.01; for inhibition of T cell chemotaxis toward MIP-1β: MIP-1β in lower compartment. As to the method:
T cell migration towards the chemotactic sources was assessed after 2 hr. One experiment representative of four.
Chemotaxis assays. T cell chemotaxis was performed and analyzed as previously described (Ben-Baruch et al., 1997). Briefly, the migration of human T cells (0.5×10^6 cells in adhesion medium/well) was examined in a 48-well chemotaxis micro-chamber (Neuro-Probe Inc., Cabin John, M D). The two compartments of the micro-chambers were separated by a FN-coated polycarbonate filter (5 μm pore size; Osmonics Protein Products, Livemore, Calif.). […] After incubation (120 min, 37° C., in a humidified, 7.5% CO2 atmosphere); the filters were removed, fixed, and stained with a Diff-Quik staining kit Dade, Düdingen, Switzerland). The number of migrating T cells in five high-power fields (under 500× magnification; WILD Microscope, Heerbrugg, Switzerland) was evaluated. For each group, the results are expressed as the mean number of cells in one high-power field.
Immune cell migration is the outcome of a subtle biological equilibrium existing between adhesion and detachment events. Lymphocyte adhesion to the subendothelial ECM and subsequent migration are two active processes that can overlap, but are not mutually dependent events. Adhesion and migration may depend on the ability of the T cells to continuously integrate different pro- and anti-adhesive signals via their versatile receptors for ECM, chemokines, cytokines, and possibly, also antigenic moieties.

The next experiment relates to HT-29 cells. Description: Spontaneous IL-8 secretion from intestinal epithelial cells (ELISA). The class given is cell-based, human. On the set-up: IL-8 secretion Average O.D.: scale not given here. The settings on record: peptide 1 nM, 24 h at 37° C.; for IL-8 secretion Average O.D.: ELISA O.D. at 405 nm, medium alone 488 ± 8.5, background 71 ± 1.4; for IL-8 secretion % inhibition: spontaneous secretion. As to the method:
Human colonic epithelial cell lines HT-29 (ATCC HTB38) and Caco-2 (ATCC […]) were obtained from the American Type Culture Collection (ATTC, Rockville, Md.). Cells were maintained in culture medium (DMEM supplemented with 10% cosmic calf serum (CSS), 2 mM glutamine, 100 U/ml penicillin, and 0.1 mg/ml streptomycin), at 37° C. and atmosphere of 5%, CO2. Cell viability was assessed using the standard MTT method.
Spontaneous or cytokine-induced secretion of IL-8 or IL-1β from intestinal epithelial cell. Test cells (HT-29 or Caco-2) were grown as confluent monolayers in 24-well tissue culture plates. […] When TNF-α was used, the peptides were added to the cells 1 hour prior to the addition of TNF-α. Following culture, the supernatants were harvested and analyzed for IL-8 or IL-1β secretion by ELISA using commercially available kits for IL-8 (Pharmingen) and IL-1β (Genzyme), according to the manufacturers' protocols.
The results in Table 1 show the O.D. readings of the ELISA assay (at 405 nm) as well as the percentage of inhibition of IL-8 secretion.

A further experiment has as its system T cells. Description: Staining of actin cytoskeleton in FN-adherent activated T cells. The format is cell-based, human. The settings on record: TRITC-phalloidin staining. As to the method: FIGS. 8A-8E show inhibition by pep2 of the spreading and redistribution of the actin cytoskeleton in IL-2- and PMA-activated FN-adherent T cells. […] After incubation, the intracellular actin filaments of the fixed FN-attached T cells were stained. Original magnification, =1000.
Staining of actin cytoskeleton. T cells were incubated (18 h, 37° C., 7.5% CO2, humidified atmosphere) in culture medium. […] After 1 h at 37° C., the adherent cells were fixed (3 min) with paraformaldehyde (3%) and Triton X-100 (0.5%), washed, and fixed (20 min) again with paraformaldehyde (3%). The fixed adherent cells were washed, treated with TRITC-phalloidin, and washed again. Photographs (×1000 magnification) were then taken.
Inhibition of the reorganization of the actin cytoskeleton in FN-attached activated T cells by the […](SEQ ID NO:1) peptide. The adhesion of immune cells to ECM is dependent on the sequestering of the cytoplasmic domains of integrins in focal adhesion sites, together with actin-containing microfilament bundles (Sanchez-Mateos et al., 1996). Therefore, we examined the effect of […](SEQ ID NO:1) on the morphologies of adherent T cells. […] After incubation and fixation, the actin cytoskeleton of attached T cells was stained with TRITC-conjugated phalloidin. […]

No end group written: not given here.

In the case of “Glu-Phe-Leu-Asn-Arg-Trp-Ile-Thr (EFLNRWIT; not fully specified (C-terminus); printed as Glu-Phe-Leu-Asn-Arg-Trp-Ile-Thr) [pep2]”, the “interference with PHA- or IL-2-mediated proliferative responses” value with human T cells [1] was “none of them, at 1 to 100 pg/ml, interfered with either PHA- or IL-2-mediated proliferative responses”. Moreover, in the experiment with human T cells [2] (peptide 0.1 pg/ml), the “inhibition of 8A2-induced T cell adhesion to FN” value was “did not inhibit” and the “inhibition of PMA-induced T cell adhesion to FN” value is recorded as “did not inhibit”. Further, in the experiment on human T cells [2], the “inhibition of T cell adhesion to FN induced by various stimulators” value is “inhibited T cell adhesion to FN”. In the experiment on human T cells [3], the “inhibition of T cell migration toward IL-2” value is listed as roughly 60% and the “inhibition of T cell chemotaxis toward MIP-1β” value is listed as “only a limited inhibitory effect”. For the same substance, in the experiment with HT-29 cells, the “IL-8 secretion Average O.D.” value amounted to 36 ± 4.2 and the “IL-8 secretion % inhibition” value came to 108%. Besides, the “redistribution of the actin cytoskeleton in IL-2- and PMA-treated FN-adherent T cells” value in the experiment on T cells is on record as “inhibited the redistribution of the actin skeleton”.
As to Ile-Val-Leu [pep1], in the experiment with human T cells [1], the “interference with PHA- or IL-2-mediated proliferative responses” value was “none of them, at 1 to 100 pg/ml, interfered with either PHA- or IL-2-mediated proliferative responses”. For the same substance, in the experiment with human T cells [2] (peptide 0.1 pg/ml), the “inhibition of 8A2-induced T cell adhesion to FN” value was “did not inhibit”, the “inhibition of PMA-induced T cell adhesion to FN” value is reported as “did not inhibit” and the “inhibition of anti-CD3 mAb-induced T cell adhesion to FN” value is “did not inhibit”. Besides, the “inhibition of T cell adhesion to FN induced by various stimulators” value in the experiment on human T cells [2] is recorded as “inhibited T cell adhesion to FN”. For the same substance, in the experiment with human T cells [3], the “inhibition of T cell migration toward IL-2” value is “about 30%” and the “inhibition of T cell chemotaxis toward MIP-1β” value amounted to 80%. For the same substance, in the experiment on HT-29 cells, the “IL-8 secretion Average O.D.” value stood at 54 ± 19.1 and the “IL-8 secretion % inhibition” value is listed as 104%. Also, the “redistribution of the actin cytoskeleton in IL-2- and PMA-treated FN-adherent T cells” value with T cells is listed as “inhibition of the redistribution of the actin cytoskeleton”.
